The text below walks through data of PubChem BioAssay (NCI).

Common to all, as to test: inhibition of tumour cell growth, NCI panel, 48 h
In assay [1] the test system is MDA-N.
Assay [2] has as its system LOX IMVI melanoma.
The test system of assay [3] is KM12 colon.
Assay [4] deals with A549 NSCLC.
Assay [5] has as its system PC-3 prostate.
The test system of assay [6] is SN12C renal.
In assay [7] the test system is SR leukemia.
Assay [8] concerns OVCAR-3 ovarian.
For assay [9], the system named is ACHN renal.
Assay [10] concerns NCI-H23 lung.
The test system of assay [11] is OVCAR-5 ovarian.
Assay [12] deals with CCRF-CEM leukemia.

Each structure is given as a SMILES string. Values joined by “and” are separate entries in the source; they are usually repeats but may differ in a detail not shown here. Identical values can stand only once.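 Each compound was tested at five concentrations against cells in 96-well plates for 48 hours. GI50 = concentration required for 50% inhibition of growth. TGI is the concentration that stops growth completely.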 Starred links: 1 amine or outer side, 2 acyl side, 3 side chain; linkers in the order of their positions; H or OH if unused. Positions of bridges follow the written chain, without caps; N, C: chain ends. Non-standard residues stand in square brackets, D forms with d. Residues, ends and D or L forms follow the SMILES beside them. Chains are numbered I, II in the order given. Actinocin(9to1) = Cc1c2oc3c(C)ccc(C(=O)[*:1])c3nc-2c(C(=O)[*:2])c(N)c1=O; NMeY = CN[CH](Cc1ccc(O)cc1)C(=O)O; Sar = CNCC(=O)O

In the case of `Cc1ccc(/C=N/Nc2cc(C)c3cccc(C)c3n2)s1`, the TGI in assay [1] is 25.1 µM; in assay [2], 4.3 µM; in assay [3] it was 23.7 µM; in [4], 26.3 µM; in assay [5] it was 40.8 µM; in assay [6], 25.1 µM. For the same molecule, the TGI in assay [7] was greater than 100 µM; in assay [8], 22.2 µM; in assay [9] it was 68.5 µM; in assay [10] it was 35.2 µM; in assay [11], 28.2 µM; in assay [12], greater than 100 µM.

As for `[N-]=[N+]=Nc1c([N+](=O)[O-])c(=O)n(-c2ccccc2)c2ccccc12`, the TGI was 83.2 µM in [1]; 43.9 µM in assay [2]; greater than 100 µM in assay [3]; greater than 100 µM in assay [4]; 83.9 µM in [5]; 62.9 µM in assay [6]. The TGI was 82.6 µM in assay [7]; 22.7 µM in [8]; 85.5 µM in assay [9]; 60.7 µM in assay [10]; greater than 100 µM in assay [11]; 92.4 µM in assay [12].

On to `Cc1c2oc3c(C)ccc(C(=O)NC4C(=O)NC(C(C)C)C(=O)N5CCCC5C(=O)N(C)CC(=O)N(C)C(Cc5ccc(O)cc5)C(=O)OC4C)c3nc-2c(C(=O)NC2C(=O)NC(C(C)C)C(=O)N3CCCC3C(=O)N(C)CC(=O)N(C)C(Cc3ccc(O)cc3)C(=O)OC2C)c(N)c1=O` (centres undefined) (I: TVP[Sar][NMeY] / II: TVP[Sar][NMeY]; ester I:1-I:C, II:1-II:C; linker I:N-II:N via Actinocin(9to1); configuration not given here), for which the GI50 in [1] was 27.3 nM and 5.11 nM; in assay [2], 4.36 nM and 0.966 nM; in [4], 49.9 nM and 11.9 nM; in assay [5], 40.7 nM and 11.5 nM; in [8], 17.6 nM and 6.46 nM; in [10], 49.3 nM and 12.8 nM. The GI50 in [11] was 199 nM and 50.8 nM; in assay [12], 2.56 nM and 0.73 nM. Besides, the TGI in assay [1] is > 0.48 µM and 0.259 µM; in assay [2], greater than 1 µM; in assay [3], 0.536 µM and > 1 µM; in [4], greater than 1 µM; in [5] it was greater than 1 µM; in assay [6] it was greater than 1 µM. Moreover, the TGI was greater than 0.514 µM in assay [7]; greater than 1 µM in [9]; 0.287 µM and 0.0772 µM in assay [10]; 0.997 µM and > 0.443 µM in [11].

Turning to `BrC1=C(Br)C2(SCCS2)[C@H]2C[C@@H]1c1ccccc12`, the TGI in assay [1] is greater than 26.2 µM; in assay [2], greater than 100 µM; in assay [3], greater than 100 µM; in assay [4] it was greater than 100 µM; in assay [5], greater than 100 µM; in [6], greater than 100 µM. In addition, the TGI in assay [7] is 75 µM; in [8], greater than 100 µM; in [9], greater than 100 µM; in assay [10], greater than 100 µM; in assay [11] it was greater than 100 µM; in assay [12], greater than 100 µM.
